Test results taken from ChEMBL document CHEMBL4417631, “Oral peptide inhibitors of interleukin-23 receptor and their use to treat inflammatory bowel diseases” (2017).

Assays:
Interleukin-23 receptor [1] = target: T1, Interleukin-23 receptor (Homo sapiens, UniProt Q5VWK5); experiment: Inhibition of interleukin-23 receptor in human DB cells assessed as reduction in IL-23-stimulated STAT3 phosphorylation incubated for 30 mins by HTRF assay; type: cell-based
T1 sequence (Q5VWK5 whole entry): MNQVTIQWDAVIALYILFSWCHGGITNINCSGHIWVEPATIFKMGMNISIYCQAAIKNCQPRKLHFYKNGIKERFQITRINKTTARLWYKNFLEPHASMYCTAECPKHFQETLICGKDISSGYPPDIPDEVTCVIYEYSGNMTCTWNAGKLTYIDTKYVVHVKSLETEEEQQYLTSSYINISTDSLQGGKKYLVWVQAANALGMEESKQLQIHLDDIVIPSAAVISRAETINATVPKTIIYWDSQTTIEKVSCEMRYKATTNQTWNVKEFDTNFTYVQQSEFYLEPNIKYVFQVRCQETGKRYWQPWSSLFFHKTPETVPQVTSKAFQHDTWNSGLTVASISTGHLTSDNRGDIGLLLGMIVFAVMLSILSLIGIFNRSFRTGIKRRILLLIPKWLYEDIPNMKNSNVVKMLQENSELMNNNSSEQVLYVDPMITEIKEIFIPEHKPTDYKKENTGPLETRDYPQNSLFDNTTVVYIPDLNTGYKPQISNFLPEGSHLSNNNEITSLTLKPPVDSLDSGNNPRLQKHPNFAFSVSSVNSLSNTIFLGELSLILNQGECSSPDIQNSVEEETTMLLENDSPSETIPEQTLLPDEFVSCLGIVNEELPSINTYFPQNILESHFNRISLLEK

Interleukin-23 receptor [2] = target: T1, Interleukin-23 receptor; experiment: Inhibition of interleukin-23 binding to human interleukin-23 receptor incubated for 2 hrs by competitive binding ELISA
[3] = Half life in simulated gastric fluid at 20 uM by LC-MS/MS analysis; type: ADME
[4] = Half life in simulated intestinal fluid at 20 uM by LC-MS/MS analysis; type: ADME

IC50 (Interleukin-23 receptor [1]) [nM]	IC50 (Interleukin-23 receptor [2]) [nM]	half-life at 20 µM [3] [h]	half-life at 20 µM [4] [h]	Compound
< 10	< 10	> 6	3 to 6	CC(=O)N[C@H]1CCSC[C@@H](C(=O)N[C@@H](Cc2ccc(OCCN)cc2)C(=O)N[C@@H](Cc2ccc3ccccc3c2)C(=O)N[C@@](C)(CCCCN)C(=O)N[C@@H](CCCCNC(=O)c2ccccc2)C(=O)N[C@@H](CC(N)=O)C(=O)NCC(N)=O)NC(=O)[C@H](CCC(N)=O)NC(=O)[C@H](Cc2c[nH]c3ccccc23)NC(=O)[C@H]([C@@H](C)O)NC(=O)[C@H](CCC(N)=O)NC1=O
< 10	< 10	1 to 2	1 to 2	CC(=O)NCCCC[C@H](NC(=O)C(C)(C)NC(=O)[C@H](Cc1ccc2ccccc2c1)NC(=O)[C@H](Cc1ccc(OCCN)cc1)NC(=O)[C@@H]1CSCC[C@H](NC(C)=O)C(=O)N[C@@H](CCC(N)=O)C(=O)N[C@@H]([C@@H](C)O)C(=O)N[C@@H](Cc2c[nH]c3ccccc23)C(=O)N[C@@H](CCC(N)=O)C(=O)N1)C(=O)N[C@@H](CC(N)=O)C(=O)NCC(N)=O
< 10	< 10	2 to 3	< 1	CC(=O)N[C@H]1CCSC[C@@H](C(=O)N[C@@H](Cc2ccc(OCCN)cc2)C(=O)N[C@@H](Cc2ccc3ccccc3c2)C(=O)NC(C)(C)C(=O)N[C@@H](CCC(=O)O)C(=O)N[C@@H](CC(N)=O)C(=O)NCC(N)=O)NC(=O)[C@H](CCC(N)=O)NC(=O)[C@H](Cc2c[nH]c3ccccc23)NC(=O)[C@H]([C@@H](C)O)NC(=O)[C@H](CCC(N)=O)NC1=O
< 10	10 to 25	< 1	< 1	CC(=O)N[C@H]1CCSC[C@@H](C(=O)N[C@@H](Cc2ccc(OCCN)cc2)C(=O)N[C@@H](Cc2c[nH]c3ccccc23)C(=O)N[C@@H](CCC(C)C)C(=O)N[C@@H](CCC(=O)O)C(=O)N[C@@H](CC(N)=O)C(=O)NCC(N)=O)NC(=O)[C@H](CCC(N)=O)NC(=O)[C@H](Cc2c[nH]c3ccccc23)NC(=O)[C@H]([C@@H](C)O)NC(=O)[C@H](CCC(N)=O)NC1=O
< 10	10 to 25	> 6	> 6	CC(=O)NCCOc1ccc(C[C@H](NC(=O)[C@@H](NC(=O)[C@H](CCC(N)=O)NC(=O)[C@H](Cc2c[nH]c3ccccc23)NC(=O)[C@@H](NC(=O)[C@H](CCC(N)=O)NC(=O)[C@@H](NC(C)=O)C(C)(C)S)[C@@H](C)O)C(C)(C)S)C(=O)N[C@@H](Cc2ccc3ccccc3c2)C(=O)NC(C)(C)C(=O)N[C@@H](CCC(=O)O)C(=O)N[C@@H](CC(N)=O)C(=O)N[C@@H](CC(N)=O)C(N)=O)cc1
10 to 25	25 to 100	> 6	> 6	CC(=O)NCCCC[C@H](NC(=O)C(C)(C)NC(=O)[C@H](Cc1cccc2ccccc12)NC(=O)[C@H](Cc1ccc(OCCN)cc1)NC(=O)[C@@H]1CSCC[C@H](NC(C)=O)C(=O)N[C@@H](CCC(N)=O)C(=O)N[C@@H]([C@@H](C)O)C(=O)N[C@@H](Cc2c[nH]c3ccccc23)C(=O)N[C@@H](CCC(N)=O)C(=O)N1)C(=O)N[C@@H](CC(N)=O)C(=O)NCC(N)=O
< 10	< 10	3 to 6	> 6	CC(=O)N[C@H]1CCSC[C@@H](C(=O)N[C@@H](Cc2ccc(OCCN)cc2)C(=O)N[C@@H](Cc2c[nH]c3ccccc23)C(=O)N[C@@](C)(CC(C)C)C(=O)N[C@@H](CCC(=O)O)C(=O)N[C@@H](CC(N)=O)C(=O)NCC(N)=O)NC(=O)[C@H](CCC(N)=O)NC(=O)[C@H](Cc2c[nH]c3ccccc23)NC(=O)[C@H]([C@@H](C)O)NC(=O)[C@H](CCC(N)=O)NC1=O
< 10	< 10	2 to 3	< 1	CC(=O)NCCCC[C@H](NC(=O)[C@](C)(CO)NC(=O)[C@H](Cc1ccc2ccccc2c1)NC(=O)[C@H](Cc1ccc(OCCN)cc1)NC(=O)[C@@H]1CSCC[C@H](NC(C)=O)C(=O)N[C@@H](CCC(N)=O)C(=O)N[C@@H]([C@@H](C)O)C(=O)N[C@@H](Cc2c[nH]c3ccccc23)C(=O)N[C@@H](CCC(N)=O)C(=O)N1)C(=O)N[C@@H](CC(N)=O)C(=O)NCC(N)=O
< 10	< 10	> 6	> 6	CC(=O)NCCCC[C@H](NC(=O)C(C)(C)NC(=O)[C@H](Cc1ccc2ccccc2c1)NC(=O)[C@H](Cc1ccc(OCCNC(C)=O)cc1)NC(=O)[C@@H](NC(=O)[C@H](CCC(N)=O)NC(=O)[C@H](Cc1c[nH]c2ccccc12)NC(=O)[C@@H](NC(=O)[C@H](CCC(N)=O)NC(=O)[C@@H](NC(C)=O)C(C)(C)S)[C@@H](C)O)C(C)(C)S)C(=O)N[C@@H](CC(N)=O)C(=O)N[C@@H](CCC(N)=O)C(N)=O
< 10	10 to 25	> 6	> 6	CC(=O)NCCCC[C@](C)(NC(=O)[C@H](Cc1ccc2ccccc2c1)NC(=O)[C@H](Cc1ccc(OCCNC(C)=O)cc1)NC(=O)[C@@H](NC(=O)[C@H](CCC(N)=O)NC(=O)[C@H](Cc1c[nH]c2ccccc12)NC(=O)[C@@H](NC(=O)[C@H](CNC(C)=O)NC(=O)[C@@H](NC(C)=O)C(C)(C)S)[C@@H](C)O)C(C)(C)S)C(=O)N[C@@H](CCC(=O)O)C(=O)N[C@@H](CC(N)=O)C(=O)NCC(N)=O
< 10	10 to 25	> 6	> 6	CC(=O)NCCCC[C@](C)(NC(=O)[C@H](Cc1ccc2ccccc2c1)NC(=O)[C@H](Cc1ccc(OCCNC(C)=O)cc1)NC(=O)[C@@H](NC(=O)[C@H](CCC(N)=O)NC(=O)[C@H](Cc1c[nH]c2ccccc12)NC(=O)[C@@H](NC(=O)[C@H](CCC(N)=O)NC(=O)[C@@H](NC(C)=O)C(C)(C)S)[C@@H](C)O)C(C)(C)S)C(=O)N[C@@H](CCC(=O)O)C(=O)N[C@@H](CC(N)=O)C(=O)N[C@@H](C)C(N)=O
< 10	10 to 25	< 1	2 to 3	CC(=O)NCCCC[C@H](NC(=O)C(C)(C)NC(=O)[C@H](Cc1ccc2ccccc2c1)NC(=O)[C@H](Cc1ccc(OCCN)cc1)NC(=O)[C@@H]1CSCC[C@H](NC(C)=O)C(=O)N[C@@H](CCC(N)=O)C(=O)N[C@@H]([C@@H](C)O)C(=O)N[C@@H](Cc2c[nH]c3ccccc23)C(=O)N[C@@H](CCC(N)=O)C(=O)N1)C(=O)N[C@@H](CCC(N)=O)C(=O)NCC(N)=O
< 10	< 10	> 6	> 6	CC(=O)NCCCC[C@H](NC(=O)[C@](C)(CCCCNC(C)=O)NC(=O)[C@H](Cc1ccc2ccccc2c1)NC(=O)[C@H](Cc1ccc(OCCNC(C)=O)cc1)NC(=O)[C@@H](NC(=O)[C@H](CCC(N)=O)NC(=O)[C@H](Cc1c[nH]c2ccccc12)NC(=O)[C@@H](NC(=O)[C@H](CCC(N)=O)NC(=O)[C@@H](NC(C)=O)C(C)(C)S)[C@@H](C)O)C(C)(C)S)C(=O)N[C@@H](CC(N)=O)C(=O)NCC(N)=O
< 10	< 10	3 to 6	3 to 6	CC(=O)NCCCC[C@H](NC(=O)[C@](C)(CCCN)NC(=O)[C@H](Cc1ccc2ccccc2c1)NC(=O)[C@H](Cc1ccc(OCCN)cc1)NC(=O)[C@@H]1CSCC[C@H](NC(C)=O)C(=O)N[C@@H](CCC(N)=O)C(=O)N[C@@H]([C@@H](C)O)C(=O)N[C@@H](Cc2c[nH]c3ccccc23)C(=O)N[C@@H](CCC(N)=O)C(=O)N1)C(=O)N[C@@H](CC(N)=O)C(=O)NCC(N)=O
< 10	< 10	> 6	> 6	CC(=O)NCCCC[C@H](NC(=O)C(C)(C)NC(=O)[C@H](Cc1ccc2ccccc2c1)NC(=O)[C@H](Cc1ccc(OCCN)cc1)NC(=O)[C@@H](NC(=O)[C@H](CCC(N)=O)NC(=O)[C@H](Cc1c[nH]c2ccccc12)NC(=O)[C@@H](NC(=O)[C@H](CCC(N)=O)NC(=O)[C@@H](NC(C)=O)C(C)(C)S)[C@@H](C)O)C(C)(C)S)C(=O)N[C@@H](CC(N)=O)C(=O)N[C@@H](CCC(N)=O)C(N)=O
< 10	< 10	> 6	> 6	CC(=O)NCCCC[C@H](NC(=O)[C@](C)(CC(C)C)NC(=O)[C@H](Cc1ccc2ccccc2c1)NC(=O)[C@H](Cc1ccc(OCCNC(C)=O)cc1)NC(=O)[C@@H](NC(=O)[C@H](CCC(N)=O)NC(=O)[C@H](Cc1c[nH]c2ccccc12)NC(=O)[C@@H](NC(=O)[C@H](CCC(N)=O)NC(=O)[C@@H](NC(C)=O)C(C)(C)S)[C@@H](C)O)C(C)(C)S)C(=O)N[C@@H](CC(N)=O)C(=O)N[C@@H](CC(N)=O)C(N)=O
< 10	< 10	3 to 6	3 to 6	CC(=O)N[C@H]1CCSC[C@@H](C(=O)N[C@@H](Cc2ccc(OCCN)cc2)C(=O)N[C@@H](Cc2ccc3ccccc3c2)C(=O)N[C@@](C)(CCCCN)C(=O)N[C@@H](CCC(=O)O)C(=O)N[C@@H](CC(N)=O)C(=O)NCC(N)=O)NC(=O)[C@H](CCC(N)=O)NC(=O)[C@H](Cc2c[nH]c3ccccc23)NC(=O)[C@H]([C@@H](C)O)NC(=O)[C@H]([C@@H](C)O)NC1=O
